# Like-named read-outs stand apart in the source and are kept apart here.
# Legend:
# Jurkat cells = assay: TMTpro quantitative proteomics, 16 h; conditions: for Scaled value (to 150), replicate 01 / Scaled value (to 150), replicate 02 / Scaled value (to 150), replicate 03 / Log2(ratio) compound/UT / Ratio to untreated, replicate 01 / Ratio to untreated, replicate 02 / Ratio to untreated, replicate 03: Jurkat whole cell extracts; for Scaled value (to 150), replicate 01 / Scaled value (to 150), replicate 02 / Scaled value (to 150), replicate 03: TMTpro SPS-MS3; for Log2(ratio) compound/UT: Welch's t-test with FDR correction
# Description: Quantitative proteomics screens were carried out in untransduced Jurkat cells, embryonic stem cells (ESCs), and the multiple myeloma cell line, MM.1S. We used Jurkat cells, as our work up to this point had employed this cell line, and we selected ESCs and MM.1S cells as they express known CRBN neosubstrates, including IKZF1, IKZF3, RAB28, RNF166, SALL4, ZFP91, and ZNF827.
# Proteomics - cell lysis and protein digestion
# The viability of Jurkat cells was tested after 16-h treatment with corresponding chemicals
# viable cells in each condition. Next, ~10^7 cells per condition were collected by centrifugation (1000 rpm), washed twice with ice-cold PBS, and lysed in RIPA buffer [50 mM HEPES pH 7.4, 150 mM NaCl, 1% sodium deoxycholate, 1% NP-40, 0.1% SDS, 10 mM sodium pyrophosphate, 10 mM β-glycerophosphate, 2.5 mM MgCl2, 200 µM TCEP, phosphatase and protease inhibitor cocktail (in-house)], to produce whole cell extracts. Whole-cell extracts were sonicated, and protein concentrations were determined using the Bradford assay. Protein extracts (100 µg) were subjected to disulfide bond reduction with 5 mM TCEP (10 min) and alkylation with 25 mM chloroacetamide (20 min). Methanol–chloroform precipitation was performed prior to protease digestion. In brief, four parts of neat methanol were added to each sample and vortexed, one part chloroform was added to the sample and vortexed, and finally, three parts water was added to the sample and vortexed. The sample was centrifuged at 8000 rpm for 5 min at room temperature and subsequently washed twice with 100% methanol. Samples were resuspended in 100 mM EPPS pH8.5 containing
# 0.1% RapiGest and digested at 37 °C for 6 h with trypsin at a 100:1 protein-to-protease ratio.
# Samples were then subjected to TMTpro
# labeling. The preparation of MM1S cell extracts was conducted using the same procedure as for
# Jurkat cells. ESC cells were plated onto 6 cm dishes 24 hours prior to the chemical treatment.
# Following the chemical treatment, the cells on the dish were washed with DPBS four times, after
# which RIPA buffer was added directly to the dish, and the lysate was collected using a scraper.
# The whole cell lysates were then processed similarly to the Jurkat cell lysates.
# Proteomics - Tandem mass tag labeling
# Proline-based reporter isobaric Tandem Mass Tag (TMTpro) labeling of dried peptide samples
# resuspended in 100 mM EPPS pH 8.5, was carried out as follows. TMTpro reagent was added to
# samples (100 µg peptide), along with acetonitrile, to achieve a final acetonitrile concentration of
# approximately 30% (v/v). Following incubation at room temperature for 1 h, the labeling efficiency
# of a small aliquot was tested. The reaction was then quenched with hydroxylamine to a final
# concentration of 0.5% (v/v) for 15 min. The TMTpro-labeled samples were pooled together at a
# 1:1 ratio. The sample was vacuum centrifuged to near dryness and subjected to C18 solid-phase
# The dried TMTpro-labeled sample was resuspended in 100 μL of 10 mM NH4HCO3 pH 8.0 and
# fractionated using basic pH reverse phase HPLC 40. Briefly, samples were offline fractionated over
# a 90 min run, into 96 fractions by high pH reverse-phase HPLC (Agilent LC1260) through an aeris
# peptide xb-c18 column (Phenomenex; 250 mm × 3.6 mm) for total proteome with mobile phase A
# containing 5% acetonitrile and 10 mM NH4HCO3, and mobile phase B containing 90% acetonitrile
# [1] = target: T1, Q147A mutant degron (ANQS) fused to EGFP (Homo sapiens, UniProt Q96SW2+Q9UKT9, Q147A); assay: Ratiometric EGFP:mCherry flow cytometry degradation assay, 18 h; assay type: cell-based; conditions: Jurkat, read-out: DMax Q147A/%
# T1 construct: pLVX-Sprout-IKZF3 130-189aa Q147A (ANQS); expressed in transfected cells
# T1 sequence (Q9UKT9 130-189 Q147A): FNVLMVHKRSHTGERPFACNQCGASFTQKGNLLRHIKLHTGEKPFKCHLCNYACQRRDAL
# T1 sequence (Q96SW2 whole entry, the tested form may be a part): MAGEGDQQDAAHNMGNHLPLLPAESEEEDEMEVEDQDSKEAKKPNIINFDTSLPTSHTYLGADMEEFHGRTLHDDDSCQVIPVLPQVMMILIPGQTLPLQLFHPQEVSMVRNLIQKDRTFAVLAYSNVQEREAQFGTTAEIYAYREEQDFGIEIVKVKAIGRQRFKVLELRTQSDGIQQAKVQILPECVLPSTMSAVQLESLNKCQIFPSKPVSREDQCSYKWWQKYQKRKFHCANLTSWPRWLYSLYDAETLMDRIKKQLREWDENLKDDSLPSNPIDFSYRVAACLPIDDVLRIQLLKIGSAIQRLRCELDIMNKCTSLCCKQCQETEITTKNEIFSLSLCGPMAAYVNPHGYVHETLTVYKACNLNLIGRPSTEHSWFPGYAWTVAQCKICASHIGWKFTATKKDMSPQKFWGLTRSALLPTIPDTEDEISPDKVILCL
# T1 sequence (Q16531 whole entry partner, the tested form may be a part): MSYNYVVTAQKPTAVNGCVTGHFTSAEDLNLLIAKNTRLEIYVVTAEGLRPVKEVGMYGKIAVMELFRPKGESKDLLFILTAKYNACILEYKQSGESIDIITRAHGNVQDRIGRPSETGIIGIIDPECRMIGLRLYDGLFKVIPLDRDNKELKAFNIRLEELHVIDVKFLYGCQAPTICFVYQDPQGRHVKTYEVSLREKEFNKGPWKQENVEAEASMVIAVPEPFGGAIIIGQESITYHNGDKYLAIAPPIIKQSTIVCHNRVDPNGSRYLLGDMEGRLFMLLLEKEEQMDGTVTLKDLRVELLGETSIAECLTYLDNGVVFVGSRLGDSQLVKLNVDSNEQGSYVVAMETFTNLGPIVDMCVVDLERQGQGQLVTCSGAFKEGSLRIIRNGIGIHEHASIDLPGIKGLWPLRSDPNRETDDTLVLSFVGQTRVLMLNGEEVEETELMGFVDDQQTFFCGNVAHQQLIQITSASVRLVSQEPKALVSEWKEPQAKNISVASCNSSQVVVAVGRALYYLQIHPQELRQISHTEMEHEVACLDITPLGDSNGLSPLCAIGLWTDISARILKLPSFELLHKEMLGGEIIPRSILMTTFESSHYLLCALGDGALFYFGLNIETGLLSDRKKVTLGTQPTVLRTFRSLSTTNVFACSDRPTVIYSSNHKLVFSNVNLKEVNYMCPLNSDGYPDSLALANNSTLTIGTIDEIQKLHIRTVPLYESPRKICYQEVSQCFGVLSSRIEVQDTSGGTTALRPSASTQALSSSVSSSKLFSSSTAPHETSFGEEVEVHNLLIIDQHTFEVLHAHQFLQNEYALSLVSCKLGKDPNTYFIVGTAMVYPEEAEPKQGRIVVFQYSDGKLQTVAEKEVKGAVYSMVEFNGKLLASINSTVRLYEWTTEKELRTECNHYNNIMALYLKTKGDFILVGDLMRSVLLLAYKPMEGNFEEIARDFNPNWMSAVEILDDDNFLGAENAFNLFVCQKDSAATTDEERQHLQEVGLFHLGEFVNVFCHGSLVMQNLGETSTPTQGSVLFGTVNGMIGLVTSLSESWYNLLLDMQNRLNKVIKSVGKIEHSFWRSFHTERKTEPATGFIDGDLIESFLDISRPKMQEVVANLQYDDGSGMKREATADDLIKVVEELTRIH
# [2] = protein AADAT isoform 2 (Q8N5Z0-2)
smiles,measurement,setting,value
CN1CCN(c2ccc3c(c2)C(=O)N(C2CCC(=O)NC2=O)C3=O)CC1 (centres unmarked) [Cmpd23],"Scaled value (to 150), replicate 01",Jurkat cells; protein A2M (P01023),8.458
same,"Scaled value (to 150), replicate 02",Jurkat cells; protein A2M (P01023),9.12
same,"Scaled value (to 150), replicate 03",Jurkat cells; protein A2M (P01023),12.2998
same,"Scaled value (to 150), replicate 01",Jurkat cells; protein AAAS (Q9NRG9),10.4661
same,"Scaled value (to 150), replicate 02",Jurkat cells; protein AAAS (Q9NRG9),9.826
same,"Scaled value (to 150), replicate 03",Jurkat cells; protein AAAS (Q9NRG9),10.0212
same,"Scaled value (to 150), replicate 01",Jurkat cells; protein AACS (Q86V21),9.826
same,"Scaled value (to 150), replicate 02",Jurkat cells; protein AACS (Q86V21),9.749
same,"Scaled value (to 150), replicate 03",Jurkat cells; protein AACS (Q86V21),9.8
same,"Scaled value (to 150), replicate 01",Jurkat cells; [2],10.0867
same,"Scaled value (to 150), replicate 02",Jurkat cells; [2],10.5129
same,"Scaled value (to 150), replicate 03",Jurkat cells; [2],9.582
same,Log2(ratio) compound/UT,Jurkat cells; protein A2M (P01023),-0.3516
same,"Ratio to untreated, replicate 01",Jurkat cells; protein A2M (P01023),0.6228
same,"Ratio to untreated, replicate 02",Jurkat cells; protein A2M (P01023),0.6715
same,"Ratio to untreated, replicate 03",Jurkat cells; protein A2M (P01023),0.9057
same,Log2(ratio) compound/UT,Jurkat cells; protein AAAS (Q9NRG9),-0.01283
same,"Ratio to untreated, replicate 01",Jurkat cells; protein AAAS (Q9NRG9),1.017
same,"Ratio to untreated, replicate 02",Jurkat cells; protein AAAS (Q9NRG9),0.9547
same,"Ratio to untreated, replicate 03",Jurkat cells; protein AAAS (Q9NRG9),0.9736
same,Log2(ratio) compound/UT,Jurkat cells; protein AACS (Q86V21),-0.01545
same,"Ratio to untreated, replicate 01",Jurkat cells; protein AACS (Q86V21),0.9811
same,"Ratio to untreated, replicate 02",Jurkat cells; protein AACS (Q86V21),0.9735
same,"Ratio to untreated, replicate 03",Jurkat cells; protein AACS (Q86V21),0.9785
same,Log2(ratio) compound/UT,Jurkat cells; [2],0.05616
same,"Ratio to untreated, replicate 01",Jurkat cells; [2],1.033
same,"Ratio to untreated, replicate 02",Jurkat cells; [2],1.076
same,"Ratio to untreated, replicate 03",Jurkat cells; [2],0.9809
Nc1ccc2c(c1)C(=O)N(C1CCC(=O)NC1=O)C2=O (centres unmarked) [Compound 3],Dmax,"[1]; 18 h, Fig 2B",90%
O=C1CCC(N2C(=O)c3cccc(O)c3C2=O)C(=O)N1 (centres unmarked) [Compound 4],Dmax,[1],46%
COc1cccc2c1C(=O)N(C1CCC(=O)NC1=O)C2=O (centres unmarked) [Compound 6],Dmax,"[1]; 18 h, Fig 2B",75%
COc1ccc2c(c1)C(=O)N(C1CCC(=O)NC1=O)C2=O (centres unmarked) [Compound 7],Dmax,"[1]; 18 h, Fig 2B",82%
O=C1CCC(N2C(=O)c3cccc(F)c3C2=O)C(=O)N1 (centres unmarked) [Compound 8],Dmax,"[1]; 18 h, Fig 2B",57%
O=C1CCC(N2C(=O)c3ccc(F)cc3C2=O)C(=O)N1 (centres unmarked) [Compound 9],Dmax,"[1]; 18 h, Fig 2B",89%
O=C1CCC(N2C(=O)c3cccc(Cl)c3C2=O)C(=O)N1 (centres unmarked) [Compound 10],Dmax,"[1]; 18 h, Fig 2B",88%
O=C1CCC(N2C(=O)c3ccc(Cl)cc3C2=O)C(=O)N1 (centres unmarked) [Compound 11],Dmax,"[1]; 18 h, Fig 2B",37%
O=C1CCC(N2C(=O)c3cccc(Br)c3C2=O)C(=O)N1 (centres unmarked) [Compound 12],Dmax,"[1]; 18 h, Fig 2B",66%
O=C1CCC(N2C(=O)c3ccc(Br)cc3C2=O)C(=O)N1 (centres unmarked) [Compound 13],Dmax,"[1]; 18 h, Fig 2B",56%
O=C1CCC(N2C(=O)c3cccc(I)c3C2=O)C(=O)N1 (centres unmarked) [Compound 14],Dmax,"[1]; 18 h, Fig 2B",86%
O=C1CCC(N2C(=O)c3ccc(I)cc3C2=O)C(=O)N1 (centres unmarked) [Compound 15],Dmax,"[1]; 18 h, Fig 2B",77%
Cc1cccc2c1C(=O)N(C1CCC(=O)NC1=O)C2=O (centres unmarked) [Compound 16],Dmax,"[1]; 18 h, Fig 2B",87%
Cc1ccc2c(c1)C(=O)N(C1CCC(=O)NC1=O)C2=O (centres unmarked) [Compound 17],Dmax,"[1]; 18 h, Fig 2B",72%
O=C1CCC(N2C(=O)c3ccc(C(F)(F)F)cc3C2=O)C(=O)N1 (centres unmarked) [Compound 18],Dmax,"[1]; 18 h, Fig 2B",91%
O=C1CCC(N2C(=O)c3ccc(-c4ccccc4)cc3C2=O)C(=O)N1 (centres unmarked) [Compound 20],Dmax,"[1]; 18 h, Fig 2B",66%
CN(C)c1ccc2c(c1)C(=O)N(C1CCC(=O)NC1=O)C2=O (centres unmarked) [Compound 21],Dmax,"[1]; 18 h, Fig 2B",86%
CCNc1cccc2c1C(=O)N(C1CCC(=O)NC1=O)C2=O (centres unmarked) [Compound 24],Dmax,"[1]; 18 h, Fig 2B",96%
O=C1CCC(N2C(=O)c3cccc(NCc4ccccc4)c3C2=O)C(=O)N1 (centres unmarked) [Compound 26],Dmax,"[1]; 18 h, Fig 2B",95%
O=C1CCC(N2C(=O)c3cccc(NCc4cccnc4)c3C2=O)C(=O)N1 (centres unmarked) [Compound 27],Dmax,"[1]; 18 h, Fig 2B",93%
Cc1ccccc1CNc1cccc2c1C(=O)N(C1CCC(=O)NC1=O)C2=O (centres unmarked) [Compound 28],Dmax,"[1]; 18 h, Fig 2B",94%
O=C1CCC(N2C(=O)c3cccc(OCc4ccccc4)c3C2=O)C(=O)N1 (centres unmarked) [Compound 30],Dmax,"[1]; 18 h, Fig 2B",85%
O=C1CCC(N2C(=O)c3cccc(OCc4cccnc4)c3C2=O)C(=O)N1 (centres unmarked) [Compound 31],Dmax,"[1]; 18 h, Fig 2B",82%
Cc1ccccc1COc1cccc2c1C(=O)N(C1CCC(=O)NC1=O)C2=O (centres unmarked) [Compound 32],Dmax,"[1]; 18 h, Fig 2B",65%
O=C1CCC(N2C(=O)c3cccc(OC(c4ccccc4)c4ccccc4)c3C2=O)C(=O)N1 (centres unmarked) [Compound 34],Dmax,"[1]; 18 h, Fig 2B",90%
O=C1CCC(N2C(=O)c3cccnc3C2=O)C(=O)N1 (centres unmarked) [Compound 35],Dmax,"[1]; 18 h, Fig 2B",60%
O=C1CCC(N2C(=O)c3ccncc3C2=O)C(=O)N1 (centres unmarked) [Compound 36],Dmax,"[1]; 18 h, Fig 2B",91%
Nc1cccc2c1CN(C1CCC(=O)NC1=O)C2=O (centres unmarked) [lenalidomide],"Scaled value (to 150), replicate 01",Jurkat cells; protein A2M (P01023),10.2473
same,"Scaled value (to 150), replicate 02",Jurkat cells; protein A2M (P01023),8.044
same,"Scaled value (to 150), replicate 03",Jurkat cells; protein A2M (P01023),8.233
same,"Scaled value (to 150), replicate 01",Jurkat cells; protein AAAS (Q9NRG9),9.75
same,"Scaled value (to 150), replicate 02",Jurkat cells; protein AAAS (Q9NRG9),10.198
same,"Scaled value (to 150), replicate 03",Jurkat cells; protein AAAS (Q9NRG9),10.3119
same,"Scaled value (to 150), replicate 01",Jurkat cells; protein AACS (Q86V21),10.2128
same,"Scaled value (to 150), replicate 02",Jurkat cells; protein AACS (Q86V21),10.0368
same,"Scaled value (to 150), replicate 03",Jurkat cells; protein AACS (Q86V21),9.972
same,"Scaled value (to 150), replicate 01",Jurkat cells; [2],9.894
same,"Scaled value (to 150), replicate 02",Jurkat cells; [2],10.004
same,"Scaled value (to 150), replicate 03",Jurkat cells; [2],10.2911
same,proteins significantly degraded (quantitative proteomics),"Jurkat cells; Jurkat, 1 μM, 16 h, Welch's t test",at least 6 proteins

# Reference: PMC12645437, “Orthogonal IMiD-Degron Pairs Induce Selective Protein Degradation in Cells” (ACS Chemical Biology, 2025)
